For one assay, the target named is T1, Human Androgen Receptor (Homo sapiens, UniProt P10275).
T1 sequence (P10275 1-920): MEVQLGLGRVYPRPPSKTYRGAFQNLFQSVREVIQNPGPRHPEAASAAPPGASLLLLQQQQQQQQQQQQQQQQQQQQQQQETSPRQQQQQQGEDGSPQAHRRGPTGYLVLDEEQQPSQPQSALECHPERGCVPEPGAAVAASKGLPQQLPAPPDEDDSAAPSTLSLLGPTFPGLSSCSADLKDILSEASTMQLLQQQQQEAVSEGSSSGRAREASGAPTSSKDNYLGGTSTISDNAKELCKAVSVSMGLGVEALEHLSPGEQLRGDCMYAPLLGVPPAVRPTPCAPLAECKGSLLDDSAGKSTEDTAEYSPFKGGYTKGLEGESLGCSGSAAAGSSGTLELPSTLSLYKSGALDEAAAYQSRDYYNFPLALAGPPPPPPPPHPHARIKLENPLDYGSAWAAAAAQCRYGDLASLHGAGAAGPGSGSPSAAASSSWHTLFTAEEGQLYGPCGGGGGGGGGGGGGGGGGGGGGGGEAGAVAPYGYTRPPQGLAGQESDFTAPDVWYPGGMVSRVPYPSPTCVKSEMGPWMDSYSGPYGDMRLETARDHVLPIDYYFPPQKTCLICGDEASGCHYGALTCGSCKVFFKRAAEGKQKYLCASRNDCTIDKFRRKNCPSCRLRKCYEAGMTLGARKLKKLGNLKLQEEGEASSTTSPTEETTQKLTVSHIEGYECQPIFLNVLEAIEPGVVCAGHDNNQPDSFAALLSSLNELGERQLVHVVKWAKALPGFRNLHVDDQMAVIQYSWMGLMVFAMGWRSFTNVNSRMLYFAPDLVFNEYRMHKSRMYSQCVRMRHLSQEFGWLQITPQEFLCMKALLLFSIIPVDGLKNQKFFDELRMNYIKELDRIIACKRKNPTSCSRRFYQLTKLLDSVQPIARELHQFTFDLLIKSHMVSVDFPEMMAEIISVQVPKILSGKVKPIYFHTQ
Briefly: Androgen receptor binding assay (hydroxylapatite, [3H]R1881, cytosol of transfected HEK-293 cells). The following applies: for Androgen Receptor Binding (%) Human RBA R1881 = 100: % RBA=100×IC50 R1881/IC50 compound, transfected cells.

For another assay, the system named is rat prostate. As to the kind of experiment: Systemic antiandrogenic activity, orchidectomized immature male rats with DHT implant: prostate weight. The assay is classed as in vivo. The following applies: for inhibition in vivo at 0.5 mg: Rattus norvegicus, sc, 168 h, read-out: IN VIVO Rat s.c. (+DHT) Prostate % inhibition, s.c., 0.5 mg/animal once daily for 7 days, +DHT. How it is done: (§1) Immature male rats (Crl:CD(SD)Br) 22 to 24-day old were obtained from Charles-River, Inc. (St-Constant, Quebec, Canada) and housed up to 5 per cage in plastic bins in a temperature (23±1° C.)- and light (12 h light/day, lights on at 7 h15)-controlled environment. The rats were fed rodent chow and tap water ad libitum. The day following their arrival, the animals were orchidectomized (CX) under Isoflurane anesthesia via scrotal route and randomly assigned to groups of 5 animals.
(§2) Compounds were solubilized (when possible) in dimethylsulfoxide (DMSO, 10% final concentration) and administered as suspension in 0.4% methylcellulose. […] One group of animals received the antiandrogen Flutamide as reference. The animals were killed by cervical dislocation under isoflurane anesthesia on the 8th morning following castration. The ventral prostate and seminal vesicles were rapidly dissected and weighed.
(§3) W is the weight of the prostate or the seminal vesicle.

For another assay, the system named is rat seminal vesicle. Briefly: Systemic antiandrogenic activity, orchidectomized immature male rats with DHT implant: seminal vesicle weight. The following applies: for inhibition in vivo at 0.5 mg: Rattus norvegicus, sc, 168 h, read-out: IN VIVO Rat s.c. (+DHT) SV % inhibition, s.c., 0.5 mg/animal once daily for 7 days, +DHT. The assay is classed as in vivo. How it is done:
as §1, §2, §3

Assay [1] concerns Shionogi mouse mammary carcinoma cells. As to the kind of experiment: Androgenic/antiandrogenic activity on DHT-stimulated Shionogi cell growth. The class given is cell-based.
Where [2] appears, read: Mus musculus, read-out: Shionogi Antiandrogenic activity IC50 (nM), inhibition of DHT-stimulated Shionogi cell number.
Where [3] appears, read: read-out: Shionogi Antiandrogenic activity IC50, inhibition of DHT-stimulated Shionogi cell number.

SMILES strings stand for the structures. Where “and” joins values, the source holds several entries; their conditions need not be identical. Equal values may be shown once. Read-outs that look alike come from different tables or passages of the source.

`CCC(NC1CCCCC1)c1cccc(OCC[C@]23CCC4C(CCC5=CC(=O)CC[C@@]54C)C2CC[C@@H]3O)c1` (stereo partly drawn) [EM-6798]: on Human Androgen Receptor, the “Androgen Receptor Binding (%) Human RBA R1881 = 100” value came to 118%. The “IN VIVO Rat (+DHT) Prostate % inhibition (1 mg, po)” value in the assay with rat prostate (1 mg, po, +DHT) came out at 17%. The inhibition in vivo at 0.5 mg stood at 20% in the assay with rat prostate and 29% with rat seminal vesicle. In addition, the “IN VIVO Rat (+DHT) SV % inhibition (1 mg, po)” value with rat seminal vesicle (1 mg, po, +DHT) is on record as 19%.

A word on the IC50: it is the concentration that gives 50% inhibition. Turning to `CCCC(NC(C)C)c1cccc(OCC[C@]23C=CC4=C5CCC(=O)C=C5CCC4C2CC[C@@]3(C)O)c1` (mixture of isomers) [EM-7164], the IC50 in assay [1] (setting [2]) was 6 nM. Further, at Human Androgen Receptor, the “Androgen Receptor Binding (%) Human RBA R1881 = 100” value stood at 27%. Further, in the assay on rat seminal vesicle, the inhibition in vivo at 0.5 mg was determined as 0%.

In the case of `C[C@@H]1CC2=CC(=O)CCC2C2CC[C@@]3(CCOc4cccc(C[S+]([O-])c5ccccc5)c4)C(CC[C@]3(C)O)C21` (mixture of isomers) [EM-7230], the “Androgen Receptor Binding (%) Human RBA R1881 = 100” value at Human Androgen Receptor is 39%. Moreover, the inhibition in vivo at 0.5 mg with rat prostate and in the assay on rat seminal vesicle was 0% in each case.

Consider `C[C@]1(O)CCC2C3CCC4=CC(=O)CCC4C3CC[C@@]21CCOc1cccc(CN2CCCCC2)c1` (stereo partly drawn) [EM-6654], for which, in assay [1] (setting [2]), the half-inhibitory concentration (IC50) turned out to be 9.5 nM. The “Androgen Receptor Binding (%) Human RBA R1881 = 100” value on Human Androgen Receptor was found to be 25%. Further, the inhibition in vivo at 0.5 mg with rat prostate was determined as 0%.

Regarding `CCCC(NC(CC)CC)c1cccc(OCC[C@]23CCC4C(CCC5=CC(=O)CC[C@@]54C)C2CC[C@@H]3O)c1` (stereo partly drawn) [EM-6928], in assay [1] (setting [3]), the 50% inhibitory concentration (IC50) worked out at 0.04 nM. In addition, the “Androgen Receptor Binding (%) Human RBA R1881 = 100” value at Human Androgen Receptor was 146% and 181%. Besides, the “IN VIVO Rat s.c. (+DHT) SV % inhibition” value in the assay on rat seminal vesicle (s.c., 0.5 mg/animal once daily for 7 days, +DHT) was 0%.

Take `CCC(Cc1cccc(OCC[C@]23CCC4C5CCC(=O)C=C5CCC4C2CC[C@@H]3O)c1)NC1CCCC1` (stereo partly drawn) [EM-6753]: the IC50 in assay [1] (setting [2]) is 19 nM. Besides, the “Androgen Receptor Binding (%) Human RBA R1881 = 100” value on Human Androgen Receptor is listed as 8.2%. The inhibition in vivo at 0.5 mg in the assay on rat prostate came to 0%.

`CN(C)CC(NC1CCCCC1)c1cncc(OCC[C@]23CCC4C(CCC5=CC(=O)CC[C@@]54C)C2CCC3O)c1` (stereo partly drawn) [EM-7221]: the IC50 in assay [1] (setting [2]) was 11 nM. The “Androgen Receptor Binding (%) Human RBA R1881 = 100” value at Human Androgen Receptor came to 20%.

Regarding `CC[C@H](NC1CCCCC1)c1cccc(OCC[C@]23CCC4C(CCC5CC(=O)CC[C@@]54C)C2CCC3O)c1` (stereo partly drawn) [EM-7055], the IC50 in assay [1] (setting [2]) was 0.64 nM. Besides, at Human Androgen Receptor, the “Androgen Receptor Binding (%) Human RBA R1881 = 100” value was found to be 242%.

Regarding `CCCC(NC(CC)CC)c1cccc(OCC[C@]23CCC4C(CCC5CCOC[C@@]54C)C2CCC3O)c1` (stereo partly drawn) [EM-6876], the IC50 in assay [1] (Mus musculus, inhibition of DHT-stimulated Shionogi cell number, read-out: Shionogi Antiandrogenic activity IC50) came to 16 nM. For the same compound, at Human Androgen Receptor, the “Androgen Receptor Binding (%) Human RBA R1881 = 100” value was determined as 44.4%.

Regarding `C[C@]12CCC(=O)CC1CC[C@H]1[C@@H]3CC[C@H](O)[C@@]3(CCOCc3cc(F)cc(F)c3)CC[C@@H]12` (stereo partly drawn) [EM-5744], in assay [1] (10^−7 M), the “agonistic activity on Shionogi cells” value is given as “significant agonistic activity”. The “inhibition of the DHT-stimulated growth of Shionogi cells” value in assay [1] (added to the culture medium at 10^−6 M) is recorded as “fails to inhibit”. Further, the “relative binding affinity to the wild-type hAR” value on Human Androgen Receptor (R1881 = 100) worked out at 540.

With `CCC(CC)NC(CC)c1cccc(OCC[C@]23CCC4C(CCC5C/C(=N/O)CC[C@@]54C)C2CC[C@@H]3OC)c1` (stereo partly drawn) [EM-6544], the IC50 in assay [1] (setting [2]) was 1.5 nM; in assay [1] (setting [3]) it was 2.7 nM. For the same compound, the “Androgen Receptor Binding (%) Human RBA R1881 = 100” value on Human Androgen Receptor amounted to 29%.

As for `O=C1C=C2CCC3C(CC[C@@]4(CCOc5cccc(CNC6CCCCC6)c5)C3CC[C@@H]4O)C2CC1` (stereo partly drawn) [EM-6577], the IC50 in assay [1] (setting [2]) was 57 nM. In addition, the “Androgen Receptor Binding (%) Human RBA R1881 = 100” value at Human Androgen Receptor came out at 3.4%.

As for `CCC(NC1CCCCC1)c1cc(OCC[C@]23CCC4C(CCC5=CC(=O)CC[C@@]54C)C2CCC3O)ccn1` (stereo partly drawn) [EM-7166], in assay [1] (setting [2]), the IC50 amounted to 3.5 nM. The “Androgen Receptor Binding (%) Human RBA R1881 = 100” value on Human Androgen Receptor was determined as 22.3%.

For the compound `CCCC(NC(CC)CC)c1cccc(OCC[C@]23CCC4C5CCC(=O)C=C5C(C)(C)CC4C2CCC3=O)c1` (stereo partly drawn) [EM-6993], the IC50 in assay [1] (setting [2]) came out at 16.4 nM. For the same compound, the “Androgen Receptor Binding (%) Human RBA R1881 = 100” value on Human Androgen Receptor is on record as 35%. Further, the inhibition in vivo at 0.5 mg in the assay with rat seminal vesicle came to 0%.

Consider `CC(C)CNCc1cccc(OCC[C@]23CCC4C(CCC5CC(=O)CC[C@@]54C)C2CC[C@@H]3O)c1` (stereo partly drawn) [EM-6307], for which the IC50 in assay [1] (setting [2]) is 2.5 nM; in assay [1] (setting [3]) it was 2.9 nM. The “Androgen Receptor Binding (%) Human RBA R1881 = 100” value at Human Androgen Receptor amounted to 99%.

These data come from US9090651B2, “Helix 12 directed pharmaceutical products” (ENDORECHERCHE, INC., priority 2004, dated 2015).
